Structures can show the parent of a compound that is named as a salt.
Molecular target: T1, CDK11A (Homo sapiens, UniProt Q9UQ88)
T1 sequence (Q9UQ88 346-783): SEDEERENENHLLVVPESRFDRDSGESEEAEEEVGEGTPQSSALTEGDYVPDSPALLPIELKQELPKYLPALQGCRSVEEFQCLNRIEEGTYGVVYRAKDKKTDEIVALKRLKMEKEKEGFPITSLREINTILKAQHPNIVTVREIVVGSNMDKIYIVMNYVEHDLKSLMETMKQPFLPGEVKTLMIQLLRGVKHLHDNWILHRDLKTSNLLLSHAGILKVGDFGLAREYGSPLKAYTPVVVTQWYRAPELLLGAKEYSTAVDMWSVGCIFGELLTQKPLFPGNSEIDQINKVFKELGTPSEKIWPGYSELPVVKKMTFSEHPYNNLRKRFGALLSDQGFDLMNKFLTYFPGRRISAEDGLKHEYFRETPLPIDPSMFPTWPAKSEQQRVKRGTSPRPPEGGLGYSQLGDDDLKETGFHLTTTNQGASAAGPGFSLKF
Conditions: displacement of SNS-032-Atto590 probe (0.002 μM) from CDK11A-p58 (0.032 uM), fluorescence polarization
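Note: compound preincubated 30 min with CDK11A-p58, then probe added and polarization (mP) read 15 min later, 0% displacement is probe plus enzyme, 100% is probe alone.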

Method: Biochemical Kinase Inhibition Assay on CDK11 in Displacement Assay Format
Displacement Assay Format
Fluorescence Polarization (FP) experiments were carried out at room temperature using no-binding black 384-well microplates (Corning, NY), in 50 mM Tris HCl, pH 8, 10 mM MgCl2, 1 mM DTT, 1 mM CHAPS in a final volume of 60 μl. The plate reader was the Pherastar microplate reader (BMG). Polarization values were read using excitation and emission wavelengths of 590 and 675 nm, respectively. All FP values are expressed as mP units.
Compounds were 4-folds serially diluted in 100% DMSO and added directly to the CDK11A-p58 solution using the pin tool (V & P Scientific): 0.2 ul of the different compound concentrations in 20 ul of enzyme solution. After an incubation of 30 minutes at r.t., 40 ul of probe solution were added. […] The Pherastar reading is performed after 15 minutes of all components incubation. For each assay, high controls (equivalent to 0% displacement) contain probe, CDK11A-p58, and 0.33% DMSO, whereas low controls (equivalent to 100% displacement) contain only probe and 0.33% DMSO. Controls are used for the Z′ and signal to background evaluation.
The data per each molecule are analyzed by Prism SW or an internally customized version of the SW package “Assay Explorer” which provides sigmoidal fittings of the ten-dilution curves for DC50 determination using a 4 parameters logistic equation:
where x is the logarithm of the inhibitor concentration, y is the response; y starts at bottom and goes to top with a sigmoid shape.

SMILES	DC50
CN1CCC(C(=O)Nc2n[nH]c3ccc(-c4c(F)cc(O)cc4F)cc23)CC1 [compound 138, N-[5-(2,6-Difluoro-4-hydroxyphenyl)-1H-indazol-3-yl]-1-methylpiperidine-4-carboxamide trifluoroacetate]	376 nM
CCCCN1CCC(C(=O)Nc2n[nH]c3ccc(-c4cc(C#N)ccc4Cl)cc23)CC1 [compound 140, 1-Butyl-N-[5-(2-chloro-5-cyanophenyl)-1H-indazol-3-yl]piperidine-4-carboxamide hydrochloride]	68 nM
CCCN1CCC(C(=O)Nc2n[nH]c3ccc(-c4cc(C#N)ccc4Cl)cc23)CC1 [compound 141, N-[5-(2-Chloro-5-cyanophenyl)-1H-indazol-3-yl]-1-propylpiperidine-4-carboxamide hydrochloride]	79 nM
CCCCCN1CCC(C(=O)Nc2n[nH]c3ccc(-c4cc(C#N)ccc4Cl)cc23)CC1 [compound 142, N-[5-(2-Chloro-5-cyanophenyl)-1H-indazol-3-yl]-1-pentylpiperidine-4-carboxamide hydrochloride]	95 nM
CC(C)N1CCC(C(=O)Nc2n[nH]c3ccc(-c4cc(C#N)ccc4Cl)cc23)CC1 [compound 143, N-[5-(2-Chloro-5-cyanophenyl)-1H-indazol-3-yl]-1-(propan-2-yl)piperidine-4-carboxamide hydrochloride]	89 nM
CNC1CC(C(=O)Nc2n[nH]c3ccc(-c4cc(C#N)ccc4Cl)cc23)C1 (stereo not shown) [compound 146, N-[5-(2-Chloro-5-cyanophenyl)-1H-indazol-3-yl]-3-(methylamino)cyclobutanecarboxamide hydrochloride]	23 nM
CC(C)NC1CC(C(=O)Nc2n[nH]c3ccc(-c4cc(C#N)ccc4Cl)cc23)C1 (stereo not shown) [compound 148, N-[5-(2-Chloro-5-cyanophenyl)-1H-indazol-3-yl]-3-(propan-2-ylamino)cyclobutanecarboxamide hydrochloride]	20 nM
N#Cc1ccc(Cl)c(-c2ccc3[nH]nc(NC(=O)C4CC(NC5CCC5)C4)c3c2)c1 (stereo not shown) [compound 153, N-[5-(2-Chloro-5-cyanophenyl)-1H-indazol-3-yl]-3-(cyclobutylamino)cyclobutanecarboxamide hydrochloride]	41 nM
N#Cc1ccc(Cl)c(-c2ccc3[nH]nc(NC(=O)C4CC(NC5CCCC5)C4)c3c2)c1 (stereo not shown) [compound 154, N-[5-(2-Chloro-5-cyanophenyl)-1H-indazol-3-yl]-3-(cyclopentylamino)cyclobutanecarboxamide hydrochloride]	40 nM
N#Cc1ccc(Cl)c(-c2ccc3[nH]nc(NC(=O)C4CC(NC5CC5)C4)c3c2)c1 (stereo not shown) [compound 155, N-[5-(2-Chloro-5-cyanophenyl)-1H-indazol-3-yl]-3-(cyclopropylamino)cyclobutanecarboxamide hydrochloride]	53 nM
O=C(Nc1n[nH]c2ccc(-c3c(Cl)cccc3Cl)cc12)C12CCN(CC1)CC2 [compound 160, N-[5-(2,6-Dichlorophenyl)-1H-indazol-3-yl]-1-azabicyclo[2.2.2]octane-4-carboxamide]	221 nM
N#Cc1ccc(Cl)c(-c2ccc3[nH]nc(NC(=O)[C@H]4CCCNC4)c3c2)c1 [compound 181, (3S)-N-[5-(2-Chloro-5-cyanophenyl)-1H-indazol-3-yl]piperidine-3-carboxamide hydrochloride]	64 nM
N#Cc1ccc(Cl)c(-c2ccc3[nH]nc(NC(=O)[C@H]4CNCCO4)c3c2)c1 [compound 182, (2R)-N-[5-(2-Chloro-5-cyanophenyl)-1H-indazol-3-yl]morpholine-2-carboxamide hydrochloride]	140 nM
N#Cc1ccc(Cl)c(-c2ccc3[nH]nc(NC(=O)C4CCCCNC4)c3c2)c1 (stereo not shown) [compound 183, N-[5-(2-Chloro-5-cyanophenyl)-1H-indazol-3-yl]azepane-3-carboxamide hydrochloride]	73 nM
N#Cc1ccc(Cl)c(-c2ccc3[nH]nc(NC(=O)C4CN5CCC4CC5)c3c2)c1 (stereo not shown) [compound 188, N-[5-(2-Chloro-5-cyanophenyl)-1H-indazol-3-yl]-1-azabicyclo[2.2.2]octane-3-carboxamide hydrochloride]	275 nM
CC(OC(=O)C(C)C)OC(=O)N1CCC[C@@H](C(=O)Nc2n[nH]c3ccc(-c4cc(C#N)ccc4Cl)cc23)C1 (stereo partly drawn) [compound 190, 1-[(2-Methylpropanoyl)oxy]ethyl (3R)-3-{[5-(2-chloro-5-cyanophenyl)-1H-indazol-3-yl]carbamoyl}piperidine-1-carboxylate]	706 nM
CC(C)(C)C(=O)OCOC(=O)N1CCC[C@@H](C(=O)Nc2n[nH]c3ccc(-c4cc(C#N)ccc4Cl)cc23)C1 [compound 193, [(2,2-Dimethylpropanoyl)oxy]methyl (3R)-3-{[5-(2-chloro-5-cyanophenyl)-1H-indazol-3-yl]carbamoyl}-piperidine-1-carboxylate]	340 nM
CC(C)C(OC(=O)N1CCC[C@@H](C(=O)Nc2n[nH]c3ccc(-c4cc(C#N)ccc4Cl)cc23)C1)OC(=O)C(C)(C)C (stereo partly drawn) [compound 197, 1-[(2,2-Dimethylpropanoyl)oxy]-2-methylpropyl (3R)-3-{[5-(2-chloro-5-cyanophenyl)-1H-indazol-3-yl]carbamoyl}piperidine-1-carboxylate]	900 nM
Nc1ccc(-c2ccc3[nH]nc(NC(=O)C4CCCNC4)c3c2)c(Cl)c1 (stereo not shown) [cpd 1, N-[5-(4-Amino-2-chlorophenyl)-1H-indazol-3-yl]piperidine-3-carboxamide dihydrochloride]	49 nM
O=C(Nc1n[nH]c2ccc(-c3ccc(O)cc3Cl)cc12)C1CCCNC1 (stereo not shown) [cpd 3, N-[5-(2-Chloro-4-hydroxyphenyl)-1H-indazol-3-yl]piperidine-3-carboxamide hydrochloride]	51 nM

Other lines, results leading:

DC50	SMILES
110 nM	CNC1CCC(C(=O)Nc2n[nH]c3ccc(-c4c(Cl)cccc4Cl)cc23)CC1 (stereo not shown) [compound 144, N-[5-(2,6-Dichlorophenyl)-1H-indazol-3-yl]-4-(methylamino)cyclohexanecarboxamide hydrochloride]
108 nM	CN(C)C1CC(C(=O)Nc2n[nH]c3ccc(-c4cc(C#N)ccc4Cl)cc23)C1 (stereo not shown) [compound 147, N-[5-(2-Chloro-5-cyanophenyl)-1H-indazol-3-yl]-3-(dimethylamino)cyclobutanecarboxamide hydrochloride]
695 nM	O=C(Nc1n[nH]c2ccc(-c3c(Cl)cccc3Cl)cc12)C1CCN(C2CC2)CC1 [compound 158, 1-Cyclopropyl-N-[5-(2,6-dichlorophenyl)-1H-indazol-3-yl]piperidine-4-carboxamide hydrochloride]
792 nM	O=C(C[C@@H]1CCCN1)Nc1n[nH]c2ccc(-c3c(Cl)cccc3Cl)cc12 [compound 162, N-[5-(2,6-Dichlorophenyl)-1H-indazol-3-yl]-2-[(2S)-pyrrolidin-2-yl]acetamide hydrochloride]
576 nM	O=C(CC1CCNCC1)Nc1n[nH]c2ccc(-c3c(Cl)cccc3Cl)cc12 [compound 163, N-[5-(2,6-Dichlorophenyl)-1H-indazol-3-yl]-2-(piperidin-4-yl)acetamide hydrochloride]
151 nM	NC[C@H]1CC[C@H](C(=O)Nc2n[nH]c3ccc(-c4c(Cl)cccc4Cl)cc23)CC1 [compound 164, trans-4-(Aminomethyl)-N-[5-(2,6-dichlorophenyl)-1H-indazol-3-yl]cyclohexanecarboxamide hydrochloride]
133 nM	CN(C)C1CCC(C(=O)Nc2n[nH]c3ccc(-c4c(Cl)cccc4Cl)cc23)CC1 (stereo not shown) [compound 166, N-[5-(2,6-Dichlorophenyl)-1H-indazol-3-yl]-4-(dimethylamino)cyclohexanecarboxamide hydrochloride]
98 nM	O=C(Nc1n[nH]c2ccc(-c3c(Cl)cccc3Cl)cc12)[C@H]1CCNC1 [compound 168, (3S)-N-[5-(2,6-Dichlorophenyl)-1H-indazol-3-yl]pyrrolidine-3-carboxamide hydrochloride]
177 nM	O=C(Nc1n[nH]c2ccc(-c3c(Cl)cccc3Cl)cc12)[C@H]1CCCNC1 [compound 170, (3S)-N-[5-(2,6-Dichlorophenyl)-1H-indazol-3-yl]piperidine-3-carboxamide hydrochloride]
42 nM	O=C(Nc1n[nH]c2ccc(-c3c(F)cccc3Cl)cc12)[C@@H]1CCCNC1 [compound 172, (3R)-N-[5-(2-Chloro-6-fluorophenyl)-1H-indazol-3-yl]piperidine-3-carboxamide hydrochloride]
391 nM	O=C(Nc1n[nH]c2ccc(-c3c(F)cccc3Cl)cc12)[C@H]1CCCNC1 [compound 173, (3S)-N-[5-(2-Chloro-6-fluorophenyl)-1H-indazol-3-yl]piperidine-3-carboxamide hydrochloride]
339 nM	NCCC(=O)Nc1n[nH]c2ccc(-c3c(Cl)cccc3Cl)cc12 [compound 175, N-[5-(2,6-Dichlorophenyl)-1H-indazol-3-yl]-b-alaninamide hydrochloride]
54 nM	C[C@H]1CC[C@@H](C(=O)Nc2n[nH]c3ccc(-c4c(Cl)cccc4Cl)cc23)CN1 [compound 177, (3R,6S)-N-[5-(2,6-Dichlorophenyl)-1H-indazol-3-yl]-6-methylpiperidine-3-carboxamide trifluoroacetate]
28 nM	C[C@@H]1CC[C@@H](C(=O)Nc2n[nH]c3ccc(-c4c(Cl)cccc4Cl)cc23)CN1 [compound 178, (3R,6R)-N-[5-(2,6-Dichlorophenyl)-1H-indazol-3-yl]-6-methylpiperidine-3-carboxamide trifluoroacetate]

— patent US20250206724A1, “SUBSTITUTED 3-AMINO INDAZOLE DERIVATIVES AS KINASE INHIBITORS” (NERVIANO MEDICAL SCIENCES S.R.L., priority 2022, published 2025)
